# Test results from patent publication US20240358842A1, “PROTEIN STABILIZING COMPOUNDS CONTAINING USP7 LIGANDS” (Stablix, Inc., priority 2021, published 2024).
# Where two headings read alike, the source gives them in different places.
# What was measured:
# USP7 = USP7 (Homo sapiens, UniProt Q93009); assay: Ub-Rho cleavage assay; format: biochemical; conditions: Ub-Rho substrate, recombinant USP7; read-out: Ub (Rho) USP7.1 (IC50)
# Procedure: All fluorescence measurements were performed on a Molecular Devices FlexStation3 with excitation at 480 nm and emission 540 nm, PMT Gain: Medium, Flash Number: 10. […] Assay buffer for all measurements was 50 mM HEPES, 100 mM NaCl, 0.5 mM EDTA, 1 mM TCEP, 0.1 mg/ml BSA, 0.01% Tween-20, pH 7.8. […] Serial dilutions were made with a Mosquito HTS (SPT Labtech) nanoliter liquid handler. 200 nL of each compound in duplicate or DMSO control were transferred to the assay plate. The first two columns served as positive controls. 9.8 μl per well of USP7 working solution was added to the assay plate. Compound+Protein was incubated for 25 min at 25° C. 10 uL of Ub-Rho substrate was added per well and incubated for an additional 15 min at 25° C. Fluorescence was then measured. Percent response relative to DMSO controls was calculated in GraphPad or Scinamic, and the data was fitted to a non-linear regression to determine IC50 values.
# USP7 CD + UBL 1-5 = target: T1, USP7 CD + UBL 1-5 (Homo sapiens, UniProt Q93009); assay: Surface plasmon resonance assay (SPR); format: binding
# T1 construct: USP7 CD +
# Procedure: The surface plasmon resonance experiments were performed using a Cytiva (formerly GE Healthcare) Biacore 8K equipped with a Series S Sensor Chip SA. The ligands were immobilized via a biotin-modified biotin acceptor peptide. USP7 Ligands were diluted in running buffer (HBS-P+2% DMSO; 10 mM HEPES, pH 7.4, 150 mM NaCl, 1 mM DTT, 0.05% P20, 2% DMSO) to 100 μg/mL and injected at […] until a density between 500-10,000 RU was reached on flow-cell two of each channel, and flow cell one was left blank to serve as a reference surface. Both surfaces were washed until a stable baseline was achieved then 30 startup cycles to condition the surface. To collect kinetic and steady-state binding data, the small molecule analytes were prepared in three-fold dilution series in HBS-P+2% DMSO running buffer. Analytes were injected over both flow cells at a flow rate of […] at 25° C. The complex was allowed to associate for 60 seconds and dissociate for 300 seconds. Data were collected at 10 Hz. The data were fit to a simple 1:1 interaction model global data analysis within Cytiva Biacore Insight Evaluation Software.
# [1] = steady-state KD, read-out: SPR USP7 CD + UBL 1-5 (KD_ss)
# T1 sequence (Q93009 208-1102 limits assumed): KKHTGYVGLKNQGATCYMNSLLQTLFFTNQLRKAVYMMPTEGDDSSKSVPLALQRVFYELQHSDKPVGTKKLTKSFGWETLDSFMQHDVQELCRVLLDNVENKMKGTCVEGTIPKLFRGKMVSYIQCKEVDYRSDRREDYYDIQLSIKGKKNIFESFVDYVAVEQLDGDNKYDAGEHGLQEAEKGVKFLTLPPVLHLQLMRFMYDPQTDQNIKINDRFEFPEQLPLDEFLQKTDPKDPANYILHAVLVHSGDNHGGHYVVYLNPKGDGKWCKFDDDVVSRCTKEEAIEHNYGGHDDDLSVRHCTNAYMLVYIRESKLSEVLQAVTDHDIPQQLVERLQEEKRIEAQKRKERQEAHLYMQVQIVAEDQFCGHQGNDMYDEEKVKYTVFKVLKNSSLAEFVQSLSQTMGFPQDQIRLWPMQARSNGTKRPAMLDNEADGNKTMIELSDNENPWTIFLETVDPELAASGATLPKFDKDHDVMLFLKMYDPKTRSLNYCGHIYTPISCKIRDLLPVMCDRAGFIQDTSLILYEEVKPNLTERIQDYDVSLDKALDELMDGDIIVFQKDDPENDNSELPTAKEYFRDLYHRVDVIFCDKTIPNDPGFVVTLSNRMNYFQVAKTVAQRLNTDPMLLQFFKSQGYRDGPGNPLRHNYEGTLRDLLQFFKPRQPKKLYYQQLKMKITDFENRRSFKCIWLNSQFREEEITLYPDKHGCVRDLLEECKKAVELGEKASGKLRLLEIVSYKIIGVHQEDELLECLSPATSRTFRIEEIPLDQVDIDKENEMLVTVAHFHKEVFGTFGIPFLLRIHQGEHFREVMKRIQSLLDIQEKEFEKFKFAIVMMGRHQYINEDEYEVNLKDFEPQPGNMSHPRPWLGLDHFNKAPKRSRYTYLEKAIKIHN
# Sequence of USP7 (Q93009 whole entry): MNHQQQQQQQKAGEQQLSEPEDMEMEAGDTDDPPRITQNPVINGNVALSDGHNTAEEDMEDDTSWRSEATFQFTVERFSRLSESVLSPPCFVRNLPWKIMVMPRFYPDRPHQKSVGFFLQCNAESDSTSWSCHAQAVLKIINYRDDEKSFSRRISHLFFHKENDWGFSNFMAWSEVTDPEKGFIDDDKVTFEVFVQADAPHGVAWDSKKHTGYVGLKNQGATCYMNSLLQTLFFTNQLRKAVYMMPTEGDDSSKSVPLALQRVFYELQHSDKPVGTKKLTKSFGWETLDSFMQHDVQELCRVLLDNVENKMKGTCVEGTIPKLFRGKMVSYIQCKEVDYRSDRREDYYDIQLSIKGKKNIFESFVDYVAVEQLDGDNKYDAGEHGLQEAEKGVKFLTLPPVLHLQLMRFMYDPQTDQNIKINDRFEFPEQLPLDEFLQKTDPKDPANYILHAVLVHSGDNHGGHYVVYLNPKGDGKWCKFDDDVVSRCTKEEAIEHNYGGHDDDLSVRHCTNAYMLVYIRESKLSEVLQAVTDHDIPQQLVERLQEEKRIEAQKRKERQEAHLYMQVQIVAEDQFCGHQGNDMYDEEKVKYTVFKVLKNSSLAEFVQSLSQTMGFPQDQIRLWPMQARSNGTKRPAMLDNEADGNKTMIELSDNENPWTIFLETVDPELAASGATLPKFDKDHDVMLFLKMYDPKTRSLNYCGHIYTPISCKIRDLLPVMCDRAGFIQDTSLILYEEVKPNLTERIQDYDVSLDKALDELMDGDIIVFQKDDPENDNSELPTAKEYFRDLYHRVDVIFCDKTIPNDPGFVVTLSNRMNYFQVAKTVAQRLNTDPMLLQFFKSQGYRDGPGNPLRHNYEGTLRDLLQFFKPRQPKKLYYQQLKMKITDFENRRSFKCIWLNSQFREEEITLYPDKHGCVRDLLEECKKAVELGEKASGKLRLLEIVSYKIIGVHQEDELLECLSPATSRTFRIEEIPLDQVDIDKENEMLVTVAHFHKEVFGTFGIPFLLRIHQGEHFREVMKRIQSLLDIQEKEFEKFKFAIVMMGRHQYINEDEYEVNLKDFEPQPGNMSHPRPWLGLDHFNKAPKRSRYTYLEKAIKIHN
IC50 (USP7),Kd (USP7 CD + UBL 1-5; [1]),"Kd (USP7 CD + UBL 1-5; kinetic KD, read-out: SPR USP7 CD + UBL 1-5 (KD_kinetic))",SMILES
1 to 100 µM,1 to 100 µM,–,CCc1c(-c2ccc(C(=O)NCCCNC(=O)CCCCCNC(=O)OC(C)(C)C)nc2)cnc(N)c1-c1ccc(O)cc1 [U50]
> 100 µM,1 to 100 µM,–,CCc1c(-c2ccc(C(=O)NCCCNC(=O)CCCCCCNC(=O)OC(C)(C)C)nc2)cnc(N)c1-c1ccc(O)cc1 [U51]
> 100 µM,1 to 100 µM,–,CCc1c(-c2ccc(C(=O)NCCCNC(=O)CCCCCCCCNC(=O)OC(C)(C)C)nc2)cnc(N)c1-c1ccc(O)cc1 [U54]
1 to 100 µM,1 to 100 µM,–,CCc1c(-c2ccc(C(=O)NCCCNC(=O)CCOCCOCCNC(=O)OC(C)(C)C)nc2)cnc(N)c1-c1ccc(O)cc1 [U56]
1 to 100 µM,1 to 100 µM,–,CCc1c(-c2ccc(C(=O)NCCCNC(=O)CCOCCOCCOCCOCCNC(=O)OC(C)(C)C)nc2)cnc(N)c1-c1ccc(O)cc1 [U58]
1 to 100 µM,1 to 100 µM,–,CCc1c(-c2ccc3[nH]ncc3c2)cnc(CNC(=O)OC(C)(C)C)c1-c1ccc(O)cc1 [U60]
> 100 µM,1 to 100 µM,–,CC(C)(C)OC(=O)N1CCC(C(=O)Nc2nc3ccc(N(S(=O)(=O)c4cccs4)S(=O)(=O)c4cccs4)cc3s2)CC1 [U66]
> 100 µM,1 to 100 µM,–,O=C(Nc1nc2ccc(NS(=O)(=O)c3cccs3)cc2s1)C1CCNCC1 [U67]
> 100 µM,1 to 100 µM,–,O=C(Nc1nc2ccc(NS(=O)(=O)c3cccs3)cc2s1)c1ccco1 [U68]
< 1 µM,< 1 µM,–,C[C@H](CC(=O)N1CCC(O)(Cn2cnc(NCCN3CCN(CCN=[N+]=[N-])CC3)cc2=O)CC1)c1ccccc1 [U69]
1 to 100 µM,1 to 100 µM,–,CCc1c(-c2ccc(C(=O)NC)nc2)ccc(NCCN=[N+]=[N-])c1-c1ccc(O)cc1 [U70]
> 100 µM,> 100 µM,–,CN1CCC(C(=O)Nc2nc3ccc(NS(=O)(=O)c4ccc5c(c4)CC(=O)N5C)cc3s2)CC1 [U72]
1 to 100 µM,> 100 µM,–,CCn1cc(S(=O)(=O)Nc2ccc3nc(NC(=O)C4CCN(C)CC4)sc3c2)cn1 [U73]
1 to 100 µM,1 to 100 µM,–,CCOC(=O)NCc1ccc(-c2ccc3n[nH]cc3c2)c(CC)c1-c1ccc(O)cc1 [U78]
> 100 µM,1 to 100 µM,–,CS(=O)(=O)c1nccc(Nc2nc3ccc(NS(=O)(=O)c4cccs4)cc3s2)n1 [U80]
> 100 µM,1 to 100 µM,–,Cc1ccsc1S(=O)(=O)Nc1ccc2nc(NC(=O)C3CCN(C)CC3)sc2c1 [U81]
> 100 µM,1 to 100 µM,–,NCc1cc(Nc2nc3ccc(NS(=O)(=O)c4cccs4)cc3s2)ncn1 [U83]
> 100 µM,1 to 100 µM,–,O=C(O)c1ccc(Nc2nc3ccc(NS(=O)(=O)c4cccs4)cc3s2)nn1 [U84]
> 100 µM,> 100 µM,–,O=C(O)c1ccnc(Nc2nc3ccc(NS(=O)(=O)c4cccs4)cc3s2)n1 [U85]
> 100 µM,> 100 µM,–,CN1CCC(C(=O)Nc2nc3cc(NS(=O)(=O)c4cccs4)ccc3s2)CC1 [U88]
> 100 µM,> 100 µM,–,CN1CCC(C(=O)Nc2nc3ccc(NS(=O)(=O)N4CC(F)C4)cc3s2)CC1 [U89]
> 100 µM,1 to 100 µM,–,CN1CCC(C(=O)Nc2nc3ccc(NS(=O)(=O)c4cnccn4)cc3s2)CC1 [U93]
> 100 µM,1 to 100 µM,–,NCCN(c1ccc2nc(NC(=O)c3ccco3)sc2c1)S(=O)(=O)c1cccs1 [U94]
> 100 µM,1 to 100 µM,–,CN1CCn2cc(C(=O)Nc3nc4ccc(NS(=O)(=O)c5cccs5)cc4s3)nc2C1 [U99]

# Continued, molecule first:
SMILES,IC50 (USP7),Kd (USP7 CD + UBL 1-5; [1]),"Kd (USP7 CD + UBL 1-5; kinetic KD, read-out: SPR USP7 CD + UBL 1-5 (KD_kinetic))"
CCc1c(-c2ccc(C(=O)NCCCNC(=O)CCCCCCCNC(=O)OC(C)(C)C)nc2)cnc(N)c1-c1ccc(O)cc1 [U52],> 100 µM,1 to 100 µM,–
CCc1c(-c2ccc(C(=O)NCCCNC(=O)CCNC(=O)OC(C)(C)C)nc2)cnc(N)c1-c1ccc(O)cc1 [U53],1 to 100 µM,1 to 100 µM,–
CCc1c(-c2ccc(C(=O)NCCCNC(=O)CCOCCNC(=O)OC(C)(C)C)nc2)cnc(N)c1-c1ccc(O)cc1 [U55],1 to 100 µM,1 to 100 µM,–
CCc1c(-c2ccc(C(=O)NCCCNC(=O)CCOCCOCCOCCNC(=O)OC(C)(C)C)nc2)cnc(N)c1-c1ccc(O)cc1 [U57],1 to 100 µM,1 to 100 µM,–
C[C@H](CC(=O)N1CCC(O)(Cn2cnc(N3CCN(CCN)CC3)cc2=O)CC1)c1ccccc1 [U59],1 to 100 µM,< 1 µM,–
CCc1c(-c2ccc(C(=O)NCCN)nc2)cnc(N)c1-c1ccc(O)cc1 [U61],< 1 µM,< 1 µM,–
CCc1c(-c2ccc(C(=O)NC)nc2)cnc(NCCN)c1-c1ccc(O)cc1 [U62],1 to 100 µM,< 1 µM,–
CCc1c(-c2ccc3[nH]ncc3c2)cnc(CN)c1-c1ccc(O)cc1 [U63],1 to 100 µM,1 to 100 µM,–
CCc1c(-c2ccc(O)cc2)cnc(C=O)c1-c1ccc(O)cc1 [U64],1 to 100 µM,1 to 100 µM,–
CCc1c(-c2ccc3[nH]ncc3c2)cnc(C=O)c1-c1ccc(O)cc1 [U65],1 to 100 µM,1 to 100 µM,–
CCc1c(-c2ccc(O)cc2)cnc(NCCN=[N+]=[N-])c1-c1ccc(C(=O)NC)nc1 [U71],1 to 100 µM,< 1 µM,–
CN1CCC(C(=O)Nc2nc3ccc(NS(=O)(=O)CC4CC4)cc3s2)CC1 [U74],> 100 µM,1 to 100 µM,–
CN1CCC(C(=O)Nc2nc3ccc(N(C)S(=O)(=O)c4cccs4)cc3s2)CC1 [U75],> 100 µM,> 100 µM,–
CCc1c(-c2ccc3n[nH]cc3c2)cnc(CNC(=O)OC(C)C)c1-c1ccc(O)cc1 [U76],1 to 100 µM,1 to 100 µM,–
CN1CCCn2nc(C(=O)Nc3nc4ccc(NS(=O)(=O)c5cccs5)cc4s3)cc2C1 [U77],> 100 µM,1 to 100 µM,1 to 100 µM
CN1CCC(C(=O)Nc2nc3ncc(NS(=O)(=O)c4cccs4)cc3s2)CC1 [U79],> 100 µM,> 100 µM,–
CCc1c(-c2ccc3c(cnn3CCN)c2)cnc(CNC(=O)OC(C)(C)C)c1-c1ccc(O)cc1 [U82],1 to 100 µM,1 to 100 µM,–
CCc1c(-c2ccc3[nH]ncc3c2)c(C#N)nc(CNC(=O)OC(C)(C)C)c1-c1ccc(O)cc1 [U86],1 to 100 µM,1 to 100 µM,–
NCc1ccc(Nc2nc3ccc(NS(=O)(=O)c4cccs4)cc3s2)nc1 [U87],> 100 µM,1 to 100 µM,–
Cc1nocc1S(=O)(=O)Nc1ccc2nc(NC(=O)C3CCN(C)CC3)sc2c1 [U90],> 100 µM,1 to 100 µM,–
CN1CCC(C(=O)Nc2nc3ccc(NS(=O)(=O)c4cn5c(n4)CCC5)cc3s2)CC1 [U91],> 100 µM,1 to 100 µM,–
CN1CCC(NC(=O)c2nc3ccc(NS(=O)(=O)c4cccs4)cc3s2)CC1 [U92],> 100 µM,> 100 µM,–
CN1CCC(C(=O)Nc2nc3ccc(NS(=O)(=O)c4cnc(Cl)s4)cc3s2)CC1 [U95],> 100 µM,> 100 µM,–
CC(=O)N1CCCn2nc(C(=O)Nc3nc4ccc(NS(=O)(=O)c5cccs5)cc4s3)cc2C1 [U96],> 100 µM,1 to 100 µM,–
CN1CCn2cnc(C(=O)Nc3nc4ccc(NS(=O)(=O)c5cccs5)cc4s3)c2C1 [U97],> 100 µM,1 to 100 µM,–
O=C(Nc1nc2ccc(NS(=O)(=O)c3cccs3)cc2s1)c1cc2n(n1)CCCN(C1CC1)C2 [U98],1 to 100 µM,1 to 100 µM,–
